Assay results taken from the NIST ThermoML archive (doi:10.1016/j.jct.2018.01.015).
± gives the expanded uncertainty stated by the source.

Experiment: xn = mol fraction of the nth substance listed
Conditions: Gas, rotating-body viscometer for gases

N#N [nitrogen] + O=C=O
Conditions	viscosity [mPa·s]
323.22 K, 200.9 kPa, x1 = 0.4996	0.0177 ± 4.2e-05
323.22 K, 398.6 kPa, x1 = 0.4996	0.01773 ± 4.2e-05
323.22 K, 399.4 kPa, x1 = 0.2479	0.01695 ± 5.5e-05
323.22 K, 598 kPa, x1 = 0.4996	0.01776 ± 4.2e-05
323.22 K, 605 kPa, x1 = 0.2479	0.01698 ± 5.5e-05
323.22 K, 798.9 kPa, x1 = 0.2479	0.01701 ± 5.5e-05
323.22 K, 804.9 kPa, x1 = 0.4996	0.0178 ± 4.2e-05
323.22 K, 996.4 kPa, x1 = 0.4996	0.01783 ± 4.2e-05
323.22 K, 1001.8 kPa, x1 = 0.2479	0.01705 ± 5.5e-05
323.22 K, 1196.8 kPa, x1 = 0.2479	0.0171 ± 5.5e-05
323.22 K, 1198.6 kPa, x1 = 0.4996	0.01787 ± 4.2e-05
323.26 K, 100.6 kPa, x1 = 1	0.0189 ± 3.1e-05
323.26 K, 101.5 kPa, x1 = 1	0.0189 ± 3.1e-05
323.26 K, 200.7 kPa, x1 = 1	0.0189 ± 3.1e-05
323.26 K, 400.4 kPa, x1 = 1	0.01893 ± 3.1e-05
323.26 K, 600.8 kPa, x1 = 1	0.01896 ± 3.1e-05
323.26 K, 800.2 kPa, x1 = 1	0.01896 ± 3.1e-05
323.26 K, 1000.6 kPa, x1 = 1	0.01901 ± 3.1e-05
323.26 K, 1000.9 kPa, x1 = 1	0.01901 ± 3.1e-05
323.27 K, 398.8 kPa, x1 = 1	0.01893 ± 3.1e-05
323.27 K, 1501.9 kPa, x1 = 1	0.01907 ± 3.1e-05
323.27 K, 1802.1 kPa, x1 = 1	0.01913 ± 3.1e-05
373.25 K, 103.3 kPa, x1 = 0.2479	0.01923 ± 5.5e-05
373.25 K, 107.8 kPa, x1 = 0.4996	0.01998 ± 4e-05
373.25 K, 200.1 kPa, x1 = 0.2479	0.01925 ± 5.5e-05
373.25 K, 200.7 kPa, x1 = 0.4996	0.02 ± 4e-05
373.25 K, 391.3 kPa, x1 = 0.4996	0.02002 ± 4e-05
373.25 K, 400.6 kPa, x1 = 0.2479	0.01928 ± 5.5e-05
373.25 K, 598.5 kPa, x1 = 0.4996	0.02005 ± 4e-05
373.25 K, 601.5 kPa, x1 = 0.2479	0.0193 ± 5.5e-05
373.25 K, 799.5 kPa, x1 = 0.4996	0.02008 ± 4e-05
373.25 K, 802.2 kPa, x1 = 0.2479	0.01933 ± 5.5e-05
373.25 K, 998.6 kPa, x1 = 0.4996	0.02011 ± 4e-05
373.25 K, 999.6 kPa, x1 = 0.2479	0.01937 ± 5.5e-05
373.25 K, 1498 kPa, x1 = 0.4996	0.0202 ± 4e-05
373.25 K, 1498.2 kPa, x1 = 0.2479	0.01947 ± 5.5e-05
373.29 K, 100.8 kPa, x1 = 1	0.02102 ± 3.1e-05
373.29 K, 201.1 kPa, x1 = 1	0.02104 ± 3.1e-05
373.29 K, 401 kPa, x1 = 1	0.02106 ± 3.1e-05
373.29 K, 601 kPa, x1 = 1	0.02107 ± 3.1e-05
373.29 K, 1000.3 kPa, x1 = 1	0.02111 ± 3.1e-05
373.29 K, 1500.6 kPa, x1 = 1	0.02118 ± 3.1e-05
373.29 K, 1807.2 kPa, x1 = 1	0.02122 ± 3.1e-05
373.57 K, 108.8 kPa, x1 = 0.7498	0.02061 ± 5.3e-05
373.57 K, 199.2 kPa, x1 = 0.7498	0.02064 ± 5.3e-05
373.57 K, 399.3 kPa, x1 = 0.7498	0.02065 ± 5.3e-05
373.57 K, 598.2 kPa, x1 = 0.7498	0.02068 ± 5.3e-05
373.57 K, 1002.4 kPa, x1 = 0.7498	0.02073 ± 5.3e-05
373.57 K, 1501.2 kPa, x1 = 0.7498	0.02081 ± 5.3e-05
373.57 K, 2041.9 kPa, x1 = 0.7498	0.02091 ± 5.3e-05
423.27 K, 108.9 kPa, x1 = 0.7498	0.02271 ± 5.9e-05
423.27 K, 200.4 kPa, x1 = 0.7498	0.02272 ± 5.9e-05
423.27 K, 398.7 kPa, x1 = 0.7498	0.02274 ± 5.9e-05
423.27 K, 600.7 kPa, x1 = 0.7498	0.02275 ± 5.9e-05
423.27 K, 1000.3 kPa, x1 = 0.7498	0.02281 ± 5.9e-05
423.27 K, 1500.1 kPa, x1 = 0.7498	0.02287 ± 5.9e-05
423.27 K, 2000 kPa, x1 = 0.7498	0.02293 ± 5.9e-05
423.28 K, 107.7 kPa, x1 = 0.2479	0.02144 ± 6.2e-05
423.28 K, 109.4 kPa, x1 = 0.4996	0.02216 ± 4.5e-05
423.28 K, 199.9 kPa, x1 = 0.4996	0.02216 ± 4.5e-05
423.28 K, 400 kPa, x1 = 0.4996	0.02219 ± 4.5e-05
423.28 K, 603 kPa, x1 = 0.4996	0.02221 ± 4.5e-05
423.28 K, 1001.7 kPa, x1 = 0.4996	0.02226 ± 4.5e-05
423.28 K, 1496.5 kPa, x1 = 0.4996	0.02233 ± 4.5e-05
423.28 K, 1995 kPa, x1 = 0.4996	0.02242 ± 4.5e-05
423.29 K, 201.4 kPa, x1 = 0.2479	0.02145 ± 6.2e-05
423.29 K, 405.1 kPa, x1 = 0.2479	0.02148 ± 6.2e-05
423.29 K, 601.1 kPa, x1 = 0.2479	0.02151 ± 6.2e-05
423.29 K, 1000.7 kPa, x1 = 0.2479	0.02156 ± 6.2e-05
423.29 K, 1495.1 kPa, x1 = 0.2479	0.02165 ± 6.2e-05
423.29 K, 1998.5 kPa, x1 = 0.2479	0.02175 ± 6.2e-05
423.33 K, 100.9 kPa, x1 = 1	0.02302 ± 3.4e-05
423.33 K, 200.9 kPa, x1 = 1	0.02303 ± 3.4e-05
423.33 K, 400.7 kPa, x1 = 1	0.02306 ± 3.4e-05
423.33 K, 600.6 kPa, x1 = 1	0.02308 ± 3.4e-05
423.33 K, 1000.5 kPa, x1 = 1	0.02311 ± 3.4e-05
423.33 K, 1500.2 kPa, x1 = 1	0.02316 ± 3.4e-05
423.33 K, 1799.4 kPa, x1 = 1	0.02319 ± 3.4e-05
473.31 K, 108.7 kPa, x1 = 0.7498	0.0247 ± 6.3e-05
473.31 K, 199 kPa, x1 = 0.7498	0.02471 ± 6.3e-05
473.31 K, 399 kPa, x1 = 0.7498	0.02472 ± 6.3e-05
473.31 K, 602.8 kPa, x1 = 0.7498	0.02474 ± 6.3e-05
473.31 K, 1003.8 kPa, x1 = 0.7498	0.02477 ± 6.3e-05
473.31 K, 1501.4 kPa, x1 = 0.7498	0.02482 ± 6.3e-05
473.31 K, 1996.7 kPa, x1 = 0.7498	0.02489 ± 6.3e-05
473.32 K, 108.1 kPa, x1 = 0.4996	0.02422 ± 4.8e-05
473.32 K, 203.7 kPa, x1 = 0.4996	0.02423 ± 4.8e-05
473.32 K, 400.1 kPa, x1 = 0.4996	0.02424 ± 4.8e-05
473.32 K, 602.4 kPa, x1 = 0.4996	0.02427 ± 4.8e-05
473.32 K, 1006.2 kPa, x1 = 0.4996	0.02431 ± 4.8e-05
473.32 K, 1503 kPa, x1 = 0.4996	0.02437 ± 4.8e-05
473.32 K, 1991.9 kPa, x1 = 0.4996	0.02444 ± 4.8e-05
473.34 K, 109.3 kPa, x1 = 0.2479	0.02355 ± 6.6e-05
473.34 K, 203.1 kPa, x1 = 0.2479	0.02356 ± 6.6e-05
473.34 K, 395.8 kPa, x1 = 0.2479	0.02358 ± 6.6e-05
473.34 K, 597.3 kPa, x1 = 0.2479	0.02359 ± 6.6e-05
473.34 K, 1000.4 kPa, x1 = 0.2479	0.02365 ± 6.6e-05
473.34 K, 1495.4 kPa, x1 = 0.2479	0.02373 ± 6.6e-05
473.34 K, 1998.5 kPa, x1 = 0.2479	0.02382 ± 6.6e-05
473.38 K, 100.7 kPa, x1 = 1	0.02494 ± 3.6e-05
473.38 K, 200.8 kPa, x1 = 1	0.02495 ± 3.6e-05
473.38 K, 398.5 kPa, x1 = 1	0.02496 ± 3.6e-05
473.38 K, 600.9 kPa, x1 = 1	0.02497 ± 3.6e-05
473.38 K, 1000.7 kPa, x1 = 1	0.02499 ± 3.6e-05
473.38 K, 1500.6 kPa, x1 = 1	0.02503 ± 3.6e-05
473.38 K, 1799.3 kPa, x1 = 1	0.02505 ± 3.6e-05
